Assay results reported in paper PMC5438088 (ChemMedChem, 2015).
“And” between values parts separate entries of the source, which are not always exact repeats. Identical values can stand only once. Like-named read-outs stand apart in the source and are kept apart here.

Legend:
SHMT = conditions: cited from earlier work
hcSHMT [1] = target: T1, hcSHMT (Homo sapiens, UniProt P34896); assay type: binding
T1 sequence (P34896 1-483): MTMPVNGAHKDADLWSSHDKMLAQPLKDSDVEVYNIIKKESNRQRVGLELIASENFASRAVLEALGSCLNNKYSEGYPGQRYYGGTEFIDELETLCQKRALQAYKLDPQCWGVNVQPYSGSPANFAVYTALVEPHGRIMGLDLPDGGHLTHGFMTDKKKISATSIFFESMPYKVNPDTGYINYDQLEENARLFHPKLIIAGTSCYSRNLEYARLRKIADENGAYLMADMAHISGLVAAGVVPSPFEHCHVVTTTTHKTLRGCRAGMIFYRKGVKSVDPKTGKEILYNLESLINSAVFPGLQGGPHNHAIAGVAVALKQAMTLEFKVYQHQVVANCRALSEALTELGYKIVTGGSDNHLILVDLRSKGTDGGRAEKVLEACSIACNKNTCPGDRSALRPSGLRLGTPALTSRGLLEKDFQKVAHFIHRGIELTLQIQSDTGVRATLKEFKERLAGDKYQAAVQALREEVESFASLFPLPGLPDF

hcSHMT [2] = target: T1, hcSHMT; test: Isothermal titration calorimetry; assay type: binding; conditions: ITC, 25°C, 10 mM glycine

Nc1nc2[nH]cc(CCc3ccc(C(=O)N[C@@H](CCC(=O)O)C(=O)O)cc3)c2c(=O)[nH]1 [Pemetrexed, (S)-2-[4-[2-(4-amino-2-oxo-3,5,7-triazabicyclo[4.3.0]nona-3,8,10-trien-9-yl)ethyl]benzoyl] aminopentanedioic acid]
inhibition of hcSHMT (SHMT; hcSHMT): low micromolar inhibitor

Nc1nc2c(c(=O)[nH]1)C[C@@H](CCc1ccc(C(=O)N[C@@H](CCC(=O)O)C(=O)O)cc1)CN2 [Lometrexol]
inhibition mechanism (hcSHMT [1]; with respect to leucovorin, double reciprocal plot): competitive inhibitor
ΔH (heat of binding) (hcSHMT [2]): 3.50 ± 0.06 kcal/mol
ΔS (hcSHMT [2]): 38.0 cal mol^−1/deg
n (binding stoichiometry) (hcSHMT [2]; listed as LTX): 0.53±0.05
Kd (hcSHMT [2]): 2000 nM and 1990 nM

Nc1nc2c(c(=O)[nH]1)N(C=O)C(CNc1ccc(C(=O)N[C@@H](CCC(=O)O)C(=O)O)cc1)CN2 (stereo partly shown) [Leucovorin, 5-formyltetrahydrofolate]
inhibition of SHMT (SHMT; both SHMT isoforms): potent, low-micromolar inhibitor
Kd (hcSHMT [1]): 1500 nM
n (binding stoichiometry) (hcSHMT [2]): 0.51±0.03
ΔH (heat of binding) (hcSHMT [2]): 4.64 ± 0.39 kcal/mol
ΔS (hcSHMT [2]): 42.4 cal mol^−1/deg
Kd (hcSHMT [2]): 1360 ± 490 nM

CC1(C)N=C(N)N=C(N)N1c1ccc(CCCCc2ccc(S(=O)(=O)F)cc2Cl)c(Cl)c1.CCS(=O)(=O)O [NSC127755]
inhibition of SHMT (SHMT): irreversible inhibitor
